Measurements from patent US9029337B2, “Modulation of factor 7 expression” (Isis Pharmaceuticals, Inc., priority 2007, dated 2015).
Strand notation (5' to 3'): a small letter for the sugar, then the base; units joined by * are phosphorothioate-linked, units joined directly phosphodiester-linked; [ ] holds rarer units or linkages, { } end groups; capitals alone tell only the bases. e = 2'-O-(2-methoxyethyl) (MOE); [5mC] = 5-methylcytosine; d = 2'-deoxy (DNA)

These substances were tested on human Factor 7 mRNA (assay: Dose-dependent antisense inhibition of human Factor 7 in HepB3 cells, electroporation). Settings: 3.125 μM, approx. 16 hours (Table 15, Example 7).
Format: cell-based
Method: (§1) The gapmers were also transfected via electroporation and their dose-dependent inhibition of human Factor 7 mRNA was measured. Cells were plated at a density of 20,000 cells per well and transfected via electroporation with 3.125 μM, 6.25 μM, 12.5 μM, 25 μM, 50 μM, and 100 μM concentrations of antisense oligonucleotide, as specified in Table 15. After a treatment period of approximately 16 hours, RNA was isolated from the cells and Factor 7 mRNA levels were measured by quantitative real-time PCR. Human Factor 7 primer probe set RTS 2927 was used to measure mRNA levels. Factor 7 mRNA levels were adjusted according to total RNA content, as measured by RIBOGREEN®. Results are presented as percent inhibition of Factor 7, relative to untreated control cells.
as §1, with “Cells were” for “The gapmers were also transfected via electroporation and their dose-dependent inhibition of human Factor 7 mRNA was measured. Cells were”, “in […]. After a” for “in Table 15. After a”, “cells and human Factor 7” for “cells and Factor 7”
With “422177 (antisense e[5mC]*e[5mC]*e[5mC]*dG*d[5mC]*d[5mC]*dG*dG*d[5mC]*dT*d[5mC]*dT*dG*d[5mC]*dT*d[5mC]*dA*eT*e[5mC]*e[5mC]) [compound 422177]” the “percent inhibition of Factor 7 mRNA, relative to untreated control cells” value was 3%.

Same assay, conditions: 6.25 μM, approx. 16 hours (Table 15, Example 7)
For “422177 (antisense e[5mC]*e[5mC]*e[5mC]*dG*d[5mC]*d[5mC]*dG*dG*d[5mC]*dT*d[5mC]*dT*dG*d[5mC]*dT*d[5mC]*dA*eT*e[5mC]*e[5mC]) [compound 422177]”, the “percent inhibition of Factor 7 mRNA, relative to untreated control cells” value was 10%.

Same assay, conditions: 12.5 μM, approx. 16 hours (Table 15, Example 7)
For “422177 (antisense e[5mC]*e[5mC]*e[5mC]*dG*d[5mC]*d[5mC]*dG*dG*d[5mC]*dT*d[5mC]*dT*dG*d[5mC]*dT*d[5mC]*dA*eT*e[5mC]*e[5mC]) [compound 422177]”, the “percent inhibition of Factor 7 mRNA, relative to untreated control cells” value was 29%.

Same assay, conditions: 25 μM, approx. 16 hours (Table 15, Example 7)
For “422177 (antisense e[5mC]*e[5mC]*e[5mC]*dG*d[5mC]*d[5mC]*dG*dG*d[5mC]*dT*d[5mC]*dT*dG*d[5mC]*dT*d[5mC]*dA*eT*e[5mC]*e[5mC]) [compound 422177]”, the “percent inhibition of Factor 7 mRNA, relative to untreated control cells” value was 21%.

Same assay, conditions: 50 μM, approx. 16 hours (Table 15, Example 7)
For “422177 (antisense e[5mC]*e[5mC]*e[5mC]*dG*d[5mC]*d[5mC]*dG*dG*d[5mC]*dT*d[5mC]*dT*dG*d[5mC]*dT*d[5mC]*dA*eT*e[5mC]*e[5mC]) [compound 422177]”, the “percent inhibition of Factor 7 mRNA, relative to untreated control cells” value was 31%.

Same assay, conditions: 100 μM, approx. 16 hours (Table 15, Example 7)
For “422177 (antisense e[5mC]*e[5mC]*e[5mC]*dG*d[5mC]*d[5mC]*dG*dG*d[5mC]*dT*d[5mC]*dT*dG*d[5mC]*dT*d[5mC]*dA*eT*e[5mC]*e[5mC]) [compound 422177]”, the “percent inhibition of Factor 7 mRNA, relative to untreated control cells” value was 63%.

The substances below were run on human Factor 7 mRNA (assay: Dose-dependent antisense inhibition of human Factor 7 in HepB3 cells, lipofectin). Settings: 3.125 nM, HepB3 cells, approx. 16 hours (Table 14).
Format: cell-based
Method in brief: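 HepB3 cells (4,000/well) lipofectin-transfected with antisense oligonucleotide at 3.125 or 6.25 up to 100 nM for ~16 h. Factor 7 mRNA measured by real-time RT-PCR with primer probe set RTS 2927, adjusted to RIBOGREEN total RNA; expressed as percent inhibition versus untreated control cells.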
In the case of “422177 (antisense e[5mC]*e[5mC]*e[5mC]*dG*d[5mC]*d[5mC]*dG*dG*d[5mC]*dT*d[5mC]*dT*dG*d[5mC]*dT*d[5mC]*dA*eT*e[5mC]*e[5mC]) [compound 422177]”, the “percent inhibition of Factor 7 mRNA, relative to untreated control cells” value is reported as 12%.

Same assay, conditions: 12.5 nM, HepB3 cells, approx. 16 hours (Table 14)
In the case of “422177 (antisense e[5mC]*e[5mC]*e[5mC]*dG*d[5mC]*d[5mC]*dG*dG*d[5mC]*dT*d[5mC]*dT*dG*d[5mC]*dT*d[5mC]*dA*eT*e[5mC]*e[5mC]) [compound 422177]”, the “percent inhibition of Factor 7 mRNA, relative to untreated control cells” value is reported as 44%.

Same assay, conditions: 25 nM, HepB3 cells, approx. 16 hours (Table 14)
With “422177 (antisense e[5mC]*e[5mC]*e[5mC]*dG*d[5mC]*d[5mC]*dG*dG*d[5mC]*dT*d[5mC]*dT*dG*d[5mC]*dT*d[5mC]*dA*eT*e[5mC]*e[5mC]) [compound 422177]” the “percent inhibition of Factor 7 mRNA, relative to untreated control cells” value was 64%.

Same assay, conditions: 50 nM, HepB3 cells, approx. 16 hours (Table 14)
With “422177 (antisense e[5mC]*e[5mC]*e[5mC]*dG*d[5mC]*d[5mC]*dG*dG*d[5mC]*dT*d[5mC]*dT*dG*d[5mC]*dT*d[5mC]*dA*eT*e[5mC]*e[5mC]) [compound 422177]” the “percent inhibition of Factor 7 mRNA, relative to untreated control cells” value was 81%.

Same assay, conditions: 100 nM, HepB3 cells, approx. 16 hours (Table 14)
“422177 (antisense e[5mC]*e[5mC]*e[5mC]*dG*d[5mC]*d[5mC]*dG*dG*d[5mC]*dT*d[5mC]*dT*dG*d[5mC]*dT*d[5mC]*dA*eT*e[5mC]*e[5mC]) [compound 422177]” was tested, and the “percent inhibition of Factor 7 mRNA, relative to untreated control cells” value was 88%.

Same assay, conditions: HepB3 cells, approx. 16 hours (Table 14)
“422177 (antisense e[5mC]*e[5mC]*e[5mC]*dG*d[5mC]*d[5mC]*dG*dG*d[5mC]*dT*d[5mC]*dT*dG*d[5mC]*dT*d[5mC]*dA*eT*e[5mC]*e[5mC]) [compound 422177]” was tested, and the “percent inhibition of Factor 7 mRNA, relative to untreated control cells” value was 24%.

What follows are substances tested on human Factor 7 mRNA (assay: Antisense inhibition of human Factor 7 mRNA in HepB3 cells, 50 nM antisense oligonucleotide, lipofectin). Settings: oligonucleotides targeted to nucleobases 13760 to 13789 of SEQ ID NO: 1 (Table 10).
Format: cell-based
Method in brief: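 Seeding density was 4,000 cells per well. Following roughly 24 hours of oligonucleotide treatment, RNA was extracted and Factor 7 message quantified using the RTS 2927 primer probe set. Levels were corrected for RIBOGREEN® total RNA and expressed against untreated controls.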
With “422177 (antisense e[5mC]*e[5mC]*e[5mC]*dG*d[5mC]*d[5mC]*dG*dG*d[5mC]*dT*d[5mC]*dT*dG*d[5mC]*dT*d[5mC]*dA*eT*e[5mC]*e[5mC]) [compound 422177]” the “% Inhibition (human Factor 7 mRNA levels)” value was 74%.
